Series [1] deals with Streptococcus pneumoniae. As to the kind of experiment: microbe, parasite or virus in culture. The following applies: SV1.
Description: Antibacterial activity against Streptococcus pneumoniae SV1 SP3
Series [2] concerns Haemophilus influenzae. As to the kind of experiment: microbe, parasite or virus in culture.
Description: Antibacterial activity against Haemophilus influenzae HI3542
Series [3] concerns Moraxella catarrhalis. The series can be described thus: microbe, parasite or virus in culture.
Description: Antibacterial activity against Moraxella catarrhalis BC-3531
The test system of series [4] is Escherichia coli. As to the kind of experiment: microbe, parasite or virus in culture.
Description: Inhibition of transcription and translation activity in Escherichia coli by luciferase reporter assay
The test system of series [5] is Enterococcus faecalis. As to the kind of experiment: microbe, parasite or virus in culture.
Description: Antibacterial activity against Enterococcus faecalis MGH2 EF1-1
The subject of series [6] is Staphylococcus aureus. The series can be described thus: microbe, parasite or virus in culture. The following applies: SA1.
Description: Antibacterial activity against Staphylococcus aureus UC76 SA1
Series [7] is described as follows: physchem. The following applies: potassium phosphate buffer, pH 6.5.
Description: Aqueous solubility in potassium phosphate buffer at pH 6.5 by laser nephrometry

In brackets after ≈: the same amount, converted by molar mass. Where only a bound is given, the exact number is not on record here.

Usually IC50 stands for the concentration needed to halve the response being measured. A higher IC50 goes with weaker potency. Broadly, the kinetic solubility is solubility judged after dilution from a stock solution rather than from solid.

With `CC(=O)NC[C@H]1CN(c2ccc3c(c2)CCCc2cn[nH]c2-3)C(=O)O1`, the MIC turned out to be 0.25 µg/mL (≈ 0.734 µM) in series [1]; 2 µg/mL (≈ 5.88 µM) in series [2]; 2 µg/mL (≈ 5.88 µM) in series [3]; 0.25 µg/mL (≈ 0.734 µM) in series [5]; 0.5 µg/mL (≈ 1.47 µM) in series [6]. In addition, in series [4], the IC50 was 450 nM. The compound also yielded a solubility (kinetic) in series [7] of 14 µg/mL (≈ 41.1 µM).

For `COc1ccc(CNc2n[nH]c3c2CCCc2cc(N4C[C@H](CNC(C)=O)OC4=O)ccc2-3)cc1`, the MIC is 0.5 µg/mL (≈ 1.05 µM) in series [1]; 8 µg/mL (≈ 16.8 µM) in series [2]; 4 µg/mL (≈ 8.41 µM) in series [3]; 1 µg/mL (≈ 2.1 µM) in series [5]; 1 µg/mL (≈ 2.1 µM) in series [6]. Further, in series [4], the IC50 was 2200 nM.

For the compound `COCCNc1n[nH]c2c1CCCc1cc(N3C[C@H](CNC(C)=O)OC3=O)ccc1-2`, the MIC was 1 µg/mL (≈ 2.42 µM) in series [1]; 1 µg/mL (≈ 2.42 µM) in series [2]; 8 µg/mL (≈ 19.3 µM) in series [3]; 2 µg/mL (≈ 4.84 µM) in series [5]; 2 µg/mL (≈ 4.84 µM) in series [6]. Also, the IC50 in series [4] is 2600 nM.

`CC(=O)NC[C@H]1CN(c2ccc3c(c2)CCCc2c(NCCN)n[nH]c2-3)C(=O)O1`: the MIC in series [1] is 4 µg/mL (≈ 10 µM); in series [2] it was 16 µg/mL (≈ 40.2 µM); in series [3], 4 µg/mL (≈ 10 µM); in series [5] it was 16 µg/mL (≈ 40.2 µM); in series [6] it was 32 µg/mL (≈ 80.3 µM). Moreover, the 50% inhibitory concentration (IC50) in series [4] was determined as 800 nM. Moreover, in series [7], the solubility (kinetic) was more than 70 µg/mL.

On to `CC(=O)NC[C@H]1CN(c2ccc3c(c2)CCCc2c(N)n[nH]c2-3)C(=O)O1`, for which the MIC in series [1] is 0.5 µg/mL (≈ 1.41 µM); in series [2] it was 4 µg/mL (≈ 11.3 µM); in series [3], 2 µg/mL (≈ 5.63 µM); in series [5] it was 2 µg/mL (≈ 5.63 µM); in series [6], 4 µg/mL (≈ 11.3 µM). The same compound yielded an IC50 in series [4] of 1200 nM.

For the compound `CNc1n[nH]c2c1CCCc1cc(N3C[C@H](CNC(C)=O)OC3=O)ccc1-2`, the MIC in series [1] worked out at 0.5 µg/mL (≈ 1.35 µM); in series [2], 4 µg/mL (≈ 10.8 µM); in series [3], 2 µg/mL (≈ 5.41 µM); in series [5], 1 µg/mL (≈ 2.71 µM); in series [6], 2 µg/mL (≈ 5.41 µM). In addition, half-maximal inhibition in series [4] (IC50) was put at 1000 nM. The same compound came in with a kinetic solubility in series [7] of more than 70 µg/mL.

Take `CCN(CC)CCCNc1n[nH]c2c1CCCc1cc(N3C[C@H](CNC(C)=O)OC3=O)ccc1-2`: the MIC was 4 µg/mL (≈ 8.54 µM) in series [1]; 32 µg/mL (≈ 68.3 µM) in series [2]; 32 µg/mL (≈ 68.3 µM) in series [3]; 32 µg/mL (≈ 68.3 µM) in series [5]; 64 µg/mL (≈ 137 µM) in series [6]. Besides, the IC50 in series [4] came out at 13000 nM.

For `CCNc1n[nH]c2c1CCCc1cc(N3C[C@H](CNC(C)=O)OC3=O)ccc1-2`, the MIC in series [1] came out at 0.25 µg/mL (≈ 0.652 µM); in series [2], 4 µg/mL (≈ 10.4 µM); in series [3], 4 µg/mL (≈ 10.4 µM); in series [5], 1 µg/mL (≈ 2.61 µM); in series [6] it was 1 µg/mL (≈ 2.61 µM). The compound further came in with an IC50 in series [4] of 1300 nM.

In the case of `CC(=O)NC[C@H]1CN(c2ccc3c(c2)CCCc2c(NC(C)C)n[nH]c2-3)C(=O)O1`, the MIC in series [1] turned out to be 0.5 µg/mL (≈ 1.26 µM); in series [2] it was 8 µg/mL (≈ 20.1 µM); in series [3], 8 µg/mL (≈ 20.1 µM); in series [5], 2 µg/mL (≈ 5.03 µM); in series [6], 4 µg/mL (≈ 10.1 µM). The same compound showed a half-maximal inhibitory concentration (IC50) in series [4] of 2200 nM.

Consider `CCCNc1n[nH]c2c1CCCc1cc(N3C[C@H](CNC(C)=O)OC3=O)ccc1-2`, for which the MIC in series [1] came to 0.25 µg/mL (≈ 0.629 µM); in series [2], 4 µg/mL (≈ 10.1 µM); in series [3] it was 8 µg/mL (≈ 20.1 µM); in series [5] it was 1 µg/mL (≈ 2.52 µM); in series [6], 2 µg/mL (≈ 5.03 µM). For the same compound, the IC50 in series [4] was found to be 2500 nM.

Take `CC(=O)NC[C@H]1CN(c2ccc3c(c2)CCCc2c(Nc4ccccc4)n[nH]c2-3)C(=O)O1`: the MIC in series [1] is 0.5 µg/mL (≈ 1.16 µM); in series [2], 4 µg/mL (≈ 9.27 µM); in series [3], 2 µg/mL (≈ 4.64 µM); in series [5], 0.5 µg/mL (≈ 1.16 µM); in series [6], 1 µg/mL (≈ 2.32 µM).

As to `CC(=O)NC[C@H]1CN(c2ccc3c(c2)CCCc2c(NCCN4CCOCC4)n[nH]c2-3)C(=O)O1`, the MIC was determined as 2 µg/mL (≈ 4.27 µM) in series [1]; 8 µg/mL (≈ 17.1 µM) in series [2]; 16 µg/mL (≈ 34.1 µM) in series [3]; 8 µg/mL (≈ 17.1 µM) in series [5]; 16 µg/mL (≈ 34.1 µM) in series [6]. Moreover, the midpoint of inhibition in series [4], the IC50, lay at 1900 nM.

`CC(=O)NC[C@H]1CN(c2ccc3c(c2)CCCc2c(NCCc4ccccn4)n[nH]c2-3)C(=O)O1`: the MIC in series [1] was determined as 0.5 µg/mL (≈ 1.09 µM); in series [2], 8 µg/mL (≈ 17.4 µM); in series [3], 8 µg/mL (≈ 17.4 µM); in series [5], 1 µg/mL (≈ 2.17 µM); in series [6], 8 µg/mL (≈ 17.4 µM). In series [4], this compound registered a half-maximal inhibitory concentration (IC50) of 1700 nM.

Take `CC(=O)NC[C@H]1CN(c2ccc3c(c2)CCCc2c(NCCc4ccc(O)cc4)n[nH]c2-3)C(=O)O1`: the MIC in series [1] stood at 0.5 µg/mL (≈ 1.05 µM); in series [2], 4 µg/mL (≈ 8.41 µM); in series [3] it was 2 µg/mL (≈ 4.21 µM); in series [5] it was 1 µg/mL (≈ 2.1 µM); in series [6] it was 2 µg/mL (≈ 4.21 µM). The IC50 in series [4] amounted to 2100 nM.

With `CC(=O)NC[C@H]1CN(c2ccc3c(c2)CCCc2c(NCCCO)n[nH]c2-3)C(=O)O1`, the MIC in series [1] was 4 µg/mL (≈ 9.67 µM); in series [2] it was 16 µg/mL (≈ 38.7 µM); in series [3], 32 µg/mL (≈ 77.4 µM); in series [5], 8 µg/mL (≈ 19.3 µM); in series [6], 8 µg/mL (≈ 19.3 µM). Also, the IC50 in series [4] is 1800 nM.

Regarding `COCCCNc1n[nH]c2c1CCCc1cc(N3C[C@H](CNC(C)=O)OC3=O)ccc1-2`, the MIC was 1 µg/mL (≈ 2.34 µM) in series [1]; 16 µg/mL (≈ 37.4 µM) in series [2]; 16 µg/mL (≈ 37.4 µM) in series [3]; 4 µg/mL (≈ 9.36 µM) in series [5]; 4 µg/mL (≈ 9.36 µM) in series [6]. This compound returned a half-inhibitory concentration (IC50) in series [4] of 2900 nM.

Turning to `CC(=O)NC[C@H]1CN(c2ccc3c(c2)CCCc2c(NCCCN)n[nH]c2-3)C(=O)O1`, the MIC was 4 µg/mL (≈ 9.7 µM) in series [1]; more than 64 µg/mL in series [2]; 32 µg/mL (≈ 77.6 µM) in series [3]; 8 µg/mL (≈ 19.4 µM) in series [5]; 32 µg/mL (≈ 77.6 µM) in series [6]. Moreover, it took 450 nM to reach half-maximal inhibition in series [4] (IC50). Further, the kinetic solubility in series [7] is more than 70 µg/mL.

Consider `CC(=O)NC[C@H]1CN(c2ccc3c(c2)CCCc2c(NC(=O)C(O)CO)n[nH]c2-3)C(=O)O1` (some centres undefined), for which the MIC is 2 µg/mL (≈ 4.51 µM) in series [1]; 32 µg/mL (≈ 72.2 µM) in series [2]; 32 µg/mL (≈ 72.2 µM) in series [3]; 16 µg/mL (≈ 36.1 µM) in series [5]; 16 µg/mL (≈ 36.1 µM) in series [6]. Moreover, the IC50 in series [4] came to 780 nM. This compound also gave a solubility (kinetic) in series [7] of 46 µg/mL (≈ 104 µM).

In the case of `CC(=O)NC[C@H]1CN(c2ccc3c(c2)CCCc2c(NCc4ccccc4)n[nH]c2-3)C(=O)O1`, the MIC turned out to be 1 µg/mL (≈ 2.24 µM) in series [1]; 8 µg/mL (≈ 18 µM) in series [2]; 4 µg/mL (≈ 8.98 µM) in series [3]; 1 µg/mL (≈ 2.24 µM) in series [5]; 2 µg/mL (≈ 4.49 µM) in series [6]. Further, in series [4], half-maximal inhibition (IC50) was put at 2000 nM.

Take `CC(=O)NC[C@H]1CN(c2ccc3c(c2)CCCc2c(NC(=O)CO)n[nH]c2-3)C(=O)O1`: the MIC in series [1] is 4 µg/mL (≈ 9.68 µM); in series [2], 16 µg/mL (≈ 38.7 µM); in series [3] it was 16 µg/mL (≈ 38.7 µM); in series [5], 4 µg/mL (≈ 9.68 µM); in series [6], 16 µg/mL (≈ 38.7 µM). Besides, 1300 nM corresponded to half-maximal inhibition in series [4] (IC50).

The values above are taken from ChEMBL document CHEMBL1140652 (Bioorg Med Chem Lett, 2007).
